Test results as given in PubChem BioAssay AID2060505 (Molecular Pharmacology Branch, DTP, NCI, 2025).

System: 633275-114-R-J1-PDC complex spheroids, viability
Test: Anticancer human tumor 633275-114-R-J1-PDC patient-derived endometrial adenocarcinoma cell line growth inhibition [GQUAD]
Conditions: for IC50: curve of first compound; for viability, T/C: stronger effect = lower value
Outline: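 Viability of tumor cells grown as complex spheroids with endothelial and stromal cells, exposed to drug combinations. Top concentration at or near clinical Cmax (else 10 microM), diluted in half-log increments.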

[1] = second compound 0.0316 µM, first compound 0.0316 µM
[2] = second compound 0.0316 µM, first compound 0.1 µM
[3] = second compound 0.0316 µM, first compound 0.316 µM
[4] = second compound 0.0316 µM, first compound 1 µM
[5] = second compound 0.0316 µM, first compound 3.16 µM
[6] = second compound 0.0316 µM, first compound 10 µM
[7] = second compound 0.1 µM, first compound 0.0316 µM
[8] = second compound 0.1 µM, first compound 0.1 µM
[9] = second compound 0.1 µM, first compound 0.316 µM
[10] = second compound 0.1 µM, first compound 1 µM
[11] = second compound 0.1 µM, first compound 3.16 µM
[12] = second compound 0.1 µM, first compound 10 µM
[13] = second compound 0.316 µM, first compound 0.0316 µM
[14] = second compound 0.316 µM, first compound 0.1 µM
[15] = second compound 0.316 µM, first compound 0.316 µM
[16] = second compound 0.316 µM, first compound 1 µM
[17] = second compound 0.316 µM, first compound 3.16 µM
[18] = second compound 0.316 µM, first compound 10 µM
[19] = second compound 1 µM, first compound 0.0316 µM
[20] = second compound 1 µM, first compound 0.1 µM
[21] = second compound 1 µM, first compound 0.316 µM
[22] = second compound 1 µM, first compound 1 µM
[23] = second compound 1 µM, first compound 3.16 µM
[24] = second compound 1 µM, first compound 10 µM
[25] = second compound 3.16 µM, first compound 0.0316 µM
[26] = second compound 3.16 µM, first compound 0.1 µM
[27] = second compound 3.16 µM, first compound 0.316 µM
[28] = second compound 3.16 µM, first compound 1 µM
[29] = second compound 3.16 µM, first compound 3.16 µM
[30] = second compound 3.16 µM, first compound 10 µM
[31] = second compound 10 µM, first compound 0.0316 µM
[32] = second compound 10 µM, first compound 0.1 µM
[33] = second compound 10 µM, first compound 0.316 µM
[34] = second compound 10 µM, first compound 1 µM
[35] = second compound 10 µM, first compound 3.16 µM
[36] = second compound 10 µM, first compound 10 µM
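Note: spheroids exposed to the agents for seven days.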
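Throughout, for viability, T/C: percent of DMSO vehicle control viability which is 100%.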

SMILES: C=CCn1c(=O)c2cnc(Nc3ccc(N4CCN(C)CC4)cc3)nc2n1-c1cccc(C(C)(C)O)n1 + Cc1cnc(CNC(=O)c2c(=O)c3ccc(N4CCCN(C)CC4)nc3n3c2sc2ccccc23)cn1
- IC50 (second compound 0.0316 µM): 129 nM
- IC50 (second compound 0.1 µM): < 31.6 nM
- IC50 (second compound 0.316 µM): < 31.6 nM
- IC50 (second compound 1 µM): < 31.6 nM
- IC50 (second compound 3.16 µM): < 31.6 nM
- IC50 (second compound 10 µM): < 31.6 nM
- viability, T/C [1]: 55.6%
- viability, T/C [2]: 56%
- viability, T/C [3]: 33.9%
- viability, T/C [4]: 23.6%
- viability, T/C [5]: 19.9%
- viability, T/C [6]: 16.5%
- viability, T/C [7]: 48.1%
- viability, T/C [8]: 40%
- viability, T/C [9]: 28.9%
- viability, T/C [10]: 22.7%
- viability, T/C [11]: 21.2%
- viability, T/C [12]: 15.2%
- viability, T/C [13]: 43.8%
- viability, T/C [14]: 39.8%
- viability, T/C [15]: 24.6%
- viability, T/C [16]: 21.1%
- viability, T/C [17]: 20.7%
- viability, T/C [18]: 16.5%
- viability, T/C [19]: 34.5%
- viability, T/C [20]: 32.2%
- viability, T/C [21]: 22.4%
- viability, T/C [22]: 19.9%
- viability, T/C [23]: 20.7%
- viability, T/C [24]: 17.3%
- viability, T/C [25]: 31.4%
- viability, T/C [26]: 26.6%
- viability, T/C [27]: 18.5%
- viability, T/C [28]: 22.5%
- viability, T/C [29]: 25%
- viability, T/C [30]: 18.3%
- viability, T/C [31]: 26.8%
- viability, T/C [32]: 20.5%
- viability, T/C [33]: 16.8%
- viability, T/C [34]: 17.8%
- viability, T/C [35]: 22.4%
- viability, T/C [36]: 19.5%

SMILES: COc1ncnc(C2CC2)c1-c1ncc2cnn(Cc3ccc(-c4nc(C(F)(F)F)cn4C(C)C)cc3)c2n1 + Cc1cnc(CNC(=O)c2c(=O)c3ccc(N4CCCN(C)CC4)nc3n3c2sc2ccccc23)cn1
- IC50 (second compound 0.0316 µM): > 10000 nM
- IC50 (second compound 0.1 µM): < 31.6 nM
- IC50 (second compound 0.316 µM): < 31.6 nM
- IC50 (second compound 1 µM): < 31.6 nM
- IC50 (second compound 3.16 µM): < 31.6 nM
- IC50 (second compound 10 µM): < 31.6 nM
- viability, T/C [1]: 53.1%
- viability, T/C [2]: 54.6%
- viability, T/C [3]: 59.3%
- viability, T/C [4]: 56%
- viability, T/C [5]: 56.5%
- viability, T/C [6]: 58.2%
- viability, T/C [7]: 45.3%
- viability, T/C [8]: 45.5%
- viability, T/C [9]: 45.9%
- viability, T/C [10]: 48.5%
- viability, T/C [11]: 49%
- viability, T/C [12]: 50%
- viability, T/C [13]: 42.7%
- viability, T/C [14]: 43.9%
- viability, T/C [15]: 42.1%
- viability, T/C [16]: 38.8%
- viability, T/C [17]: 48.7%
- viability, T/C [18]: 42.5%
- viability, T/C [19]: 39.9%
- viability, T/C [20]: 39.7%
- viability, T/C [21]: 37.1%
- viability, T/C [22]: 36.9%
- viability, T/C [23]: 40.5%
- viability, T/C [24]: 38.7%
- viability, T/C [25]: 32%
- viability, T/C [26]: 32.1%
- viability, T/C [27]: 35.5%
- viability, T/C [28]: 33.4%
- viability, T/C [29]: 36.6%
- viability, T/C [30]: 34.1%
- viability, T/C [31]: 29.2%
- viability, T/C [32]: 28.8%
- viability, T/C [33]: 30.5%
- viability, T/C [34]: 27.5%
- viability, T/C [35]: 31.9%
- viability, T/C [36]: 29.3%
